Measured values as given in patent US20050048603A1 (priority 2001, published 2005).

How the values were obtained:
[1] = biological target: mycoAC (adenylyl cyclase Rv1625c) (Mycobacterium tuberculosis, UniProt P9WQ35); format: biochemical

Mn-GTP was tested, and the “acceptance as a substrate” value [1] was “not accepted as a substrate”.

B1: mycoAC holoenzyme expressed in E. coli (N-terminal His6-tag) (protein)
chain: MRGSHHHHHHGSMAARKCGAPPIAADGSTRRPDCVTAVRTQARAPTQHYAESVARRQRVLTITAWLAVVVTGSFALMQLATGAGGWYIALINVFTAVTFAIVPLLHRFGGLVAPLTFIGTAYVAIFAIGWDVGTDAGAQFFFLVAAALVVLLVGIEHTALAVGLAAVAAGLVIALEFLVPPDTGLQPPWAMSVSFVLTTVSACGVAVATVWFALRDTARAEAVMEAEHDRSEALLANMLPASIAERLKEPERNIIADKYDEASVLFADIVGFTERASSTAPADLVRFLDRLYSAFDELVDQHGLEKIKVSGDSYMVVSGVPRPRPDHTQALADFALDMTNVAAQLKDPRGNPVPLRVGLATGPVVAGVVGSRRFFYDVWGDAVNVASRMESTDSVGQIQVPDEVYERLKDDFVLRERGHINVKGKGVMRTWYLIGRKVAADPGEVRGAEPRTAGV
For B1, the “AC activity of the bacterial membrane preparation” value (P9WQ35) was 19 nmol cAMP/mg·min^-1.
